Drawing on ChEMBL document CHEMBL3751766, “Synthesis and evaluation of atorvastatin esters as prodrugs metabolically activated by human carboxylesterases” (Bioorg Med Chem Lett, 2016), this text covers Ratio and Drug metabolism for twelve compounds.

Data set [1] is described as follows: Drug metabolism ratio of CES1 mediated compound hydrolysis in human liver microsomes to CES2-mediated compound hydrolysis in human intestine microsomes. Type of data set: ADME. (In general: Liver microsomes are a subcellular fraction often used to study metabolism.)
The target in a further data set is T1, Liver carboxylesterase 1 (Homo sapiens, UniProt P23141).
T1 sequence (P23141 whole entry): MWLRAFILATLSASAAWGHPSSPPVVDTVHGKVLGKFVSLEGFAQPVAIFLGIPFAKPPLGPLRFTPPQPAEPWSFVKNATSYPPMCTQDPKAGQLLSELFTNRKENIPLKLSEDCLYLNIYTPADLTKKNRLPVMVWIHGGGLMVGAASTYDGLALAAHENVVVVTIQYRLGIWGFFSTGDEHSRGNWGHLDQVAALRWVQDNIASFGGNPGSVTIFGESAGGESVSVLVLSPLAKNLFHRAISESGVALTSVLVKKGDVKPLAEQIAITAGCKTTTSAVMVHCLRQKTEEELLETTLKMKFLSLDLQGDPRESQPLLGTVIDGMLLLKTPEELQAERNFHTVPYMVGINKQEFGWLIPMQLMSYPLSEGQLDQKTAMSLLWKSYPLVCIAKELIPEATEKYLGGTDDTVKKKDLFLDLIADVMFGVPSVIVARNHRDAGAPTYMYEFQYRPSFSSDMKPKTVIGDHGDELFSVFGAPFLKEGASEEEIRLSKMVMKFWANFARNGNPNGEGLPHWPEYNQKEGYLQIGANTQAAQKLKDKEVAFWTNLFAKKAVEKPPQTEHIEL
The data set can be described thus: Prodrug activation in human liver microsomes assessed as CES1-mediated compound hydrolysis at […] after 90 mins by HPLC analysis. The settings on record: 1.5 h.

The target in a further data set is T2, Cocaine esterase (Homo sapiens, UniProt O00748).
T2 sequence (O00748 whole entry): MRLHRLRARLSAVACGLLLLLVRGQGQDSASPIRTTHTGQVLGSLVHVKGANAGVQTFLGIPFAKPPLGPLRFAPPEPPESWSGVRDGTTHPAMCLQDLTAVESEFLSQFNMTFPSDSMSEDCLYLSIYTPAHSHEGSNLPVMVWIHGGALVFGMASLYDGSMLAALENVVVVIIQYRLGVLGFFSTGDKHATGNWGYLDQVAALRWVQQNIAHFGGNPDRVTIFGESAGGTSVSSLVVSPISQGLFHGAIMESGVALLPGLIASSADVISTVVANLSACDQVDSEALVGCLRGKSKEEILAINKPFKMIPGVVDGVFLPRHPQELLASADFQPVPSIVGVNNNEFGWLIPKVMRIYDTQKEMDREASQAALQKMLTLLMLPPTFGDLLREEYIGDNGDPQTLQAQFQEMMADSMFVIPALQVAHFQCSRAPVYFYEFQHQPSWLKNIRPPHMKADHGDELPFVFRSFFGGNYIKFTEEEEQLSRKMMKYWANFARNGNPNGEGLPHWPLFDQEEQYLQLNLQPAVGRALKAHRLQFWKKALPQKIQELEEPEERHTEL
Put plainly: Prodrug activation in human intestine microsomes assessed as CES2-mediated hydrolysis of compound at […] after 90 mins by HPLC analysis. The settings on record: 1.5 h.

Data set [2] is described as follows: Prodrug activation assessed as human carboxylesterase1c-mediated compound hydrolysis at […] after 30 mins by HPLC analysis. The settings on record: isolated protein, 0.5 h.
The target in data set [3] is T3, Arylacetamide deacetylase (Homo sapiens, UniProt P22760).
T3 sequence (P22760 whole entry): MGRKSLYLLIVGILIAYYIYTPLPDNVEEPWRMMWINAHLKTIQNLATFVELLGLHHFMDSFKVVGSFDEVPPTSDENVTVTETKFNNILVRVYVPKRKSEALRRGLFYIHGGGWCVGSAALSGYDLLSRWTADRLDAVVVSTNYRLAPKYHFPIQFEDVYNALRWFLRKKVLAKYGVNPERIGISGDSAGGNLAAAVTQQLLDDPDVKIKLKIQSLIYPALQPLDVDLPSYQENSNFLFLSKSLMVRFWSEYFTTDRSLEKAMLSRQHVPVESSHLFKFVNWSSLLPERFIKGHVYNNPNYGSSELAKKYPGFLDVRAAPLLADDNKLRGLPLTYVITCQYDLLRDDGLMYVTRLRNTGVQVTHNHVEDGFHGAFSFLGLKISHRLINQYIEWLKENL
Put plainly: Prodrug activation assessed as human AADAC-mediated compound hydrolysis at […] after 30 mins by HPLC analysis. The settings on record: 0.5 h.

A short description of data set [4]: Prodrug activation assessed as human carboxylesterase 1b-mediated compound hydrolysis at […] after 30 mins by HPLC analysis. The settings on record: isolated protein, 0.5 h.

Regarding `CC(C)c1c(C(=O)Nc2ccccc2)c(-c2ccccc2)c(-c2ccc(F)cc2)n1CC[C@@H](O)C[C@@H](O)CC(=O)OC1CCCCC1`, the Ratio in data set [1] was 4.9. The Drug metabolism result on Liver carboxylesterase 1 and on Cocaine esterase was “metabolite_detected” each time.
`CC(C)c1c(C(=O)Nc2ccccc2)c(-c2ccccc2)c(-c2ccc(F)cc2)n1CC[C@@H](O)C[C@@H](O)CC(=O)Oc1ccccc1`: in data set [1], the Ratio was determined as 3.8. Further, the Drug metabolism result on Liver carboxylesterase 1 and at Cocaine esterase was “metabolite_detected” each time.
Regarding `CC(C)c1c(C(=O)Nc2ccccc2)c(-c2ccccc2)c(-c2ccc(F)cc2)n1CC[C@@H]1C[C@@H](O)CC(=O)O1` [ATORVASTATIN LACTONE], the Ratio in data set [1] was determined as 1.7. Also, the Drug metabolism result at Liver carboxylesterase 1 and at Cocaine esterase was “metabolite_notdetected” throughout.
For `C=CCOC(=O)C[C@H](O)C[C@H](O)CCn1c(-c2ccc(F)cc2)c(-c2ccccc2)c(C(=O)Nc2ccccc2)c1C(C)C`, the Ratio in data set [1] is on record as 5.1. Moreover, the Drug metabolism entry (in data set [2]; in data set [3]; in data set [4]; at Liver carboxylesterase 1; on Cocaine esterase) was “metabolite_detected” each time.
Take `CCCCOC(=O)C[C@H](O)C[C@H](O)CCn1c(-c2ccc(F)cc2)c(-c2ccccc2)c(C(=O)Nc2ccccc2)c1C(C)C`: in data set [1], the Ratio is 5.7. Besides, the Drug metabolism result at Liver carboxylesterase 1 and at Cocaine esterase was “metabolite_detected” in each case.
With `CCCCCCCCCCOC(=O)C[C@H](O)C[C@H](O)CCn1c(-c2ccc(F)cc2)c(-c2ccccc2)c(C(=O)Nc2ccccc2)c1C(C)C`, the Ratio in data set [1] is listed as 4.4. The Drug metabolism entry on Liver carboxylesterase 1 and on Cocaine esterase was “metabolite_detected” in each case.
`CC(C)c1c(C(=O)Nc2ccccc2)c(-c2ccccc2)c(-c2ccc(F)cc2)n1CC[C@@H](O)C[C@@H](O)CC(=O)Oc1ccc(F)cc1`: the Ratio in data set [1] was 1.9. For the same compound, the Drug metabolism result (in data set [2]; in data set [3]; in data set [4]; on Liver carboxylesterase 1; on Cocaine esterase) was “metabolite_detected” throughout.
Consider `CCCCCCCCOC(=O)C[C@H](O)C[C@H](O)CCn1c(-c2ccc(F)cc2)c(-c2ccccc2)c(C(=O)Nc2ccccc2)c1C(C)C`, for which, in data set [1], the Ratio was found to be 5.3. The Drug metabolism entry on Liver carboxylesterase 1 and at Cocaine esterase was “metabolite_detected” each time.
For the compound `COC(=O)C[C@H](O)C[C@H](O)CCn1c(-c2ccc(F)cc2)c(-c2ccccc2)c(C(=O)Nc2ccccc2)c1C(C)C`, the Ratio in data set [1] was 30.5. For the same compound, the Drug metabolism entry (in data set [2]; in data set [3]; in data set [4]; at Liver carboxylesterase 1; on Cocaine esterase) was “metabolite_detected” each time.
As to `COc1ccc(OC(=O)C[C@H](O)C[C@H](O)CCn2c(-c3ccc(F)cc3)c(-c3ccccc3)c(C(=O)Nc3ccccc3)c2C(C)C)cc1`, the Ratio in data set [1] is on record as 3.4. Besides, the Drug metabolism result at Liver carboxylesterase 1 and on Cocaine esterase was “metabolite_detected” in each case.
In the case of `CC(C)c1c(C(=O)Nc2ccccc2)c(-c2ccccc2)c(-c2ccc(F)cc2)n1CC[C@@H](O)C[C@@H](O)CC(=O)OCc1ccccc1`, the Ratio in data set [1] is reported as 9.1. Further, the Drug metabolism entry on Liver carboxylesterase 1 and at Cocaine esterase was “metabolite_detected” each time.
As to `CCOC(=O)C[C@H](O)C[C@H](O)CCn1c(-c2ccc(F)cc2)c(-c2ccccc2)c(C(=O)Nc2ccccc2)c1C(C)C`, in data set [1], the Ratio was found to be 40.1. The Drug metabolism result on Liver carboxylesterase 1 and on Cocaine esterase was “metabolite_detected” each time.
